In patent US10071979B2, “Process of producing cycloalkylcarboxamido-indole compounds” (Vertex Pharmaceuticals Incorporated, priority 2010, dated 2018):

Target: T1, ΔF508-CFTR (Homo sapiens, UniProt P13569, DEL508-508)
T1 construct: expressed in transfected cells
Assay: Assays for detecting and measuring ΔF508-CFTR correction properties (membrane potential optical assay, FRET voltage-sensor dyes)
Assay type: cell-based
Conditions: NIH3T3 mouse fibroblasts stably expressing ΔF508-CFTR; percent activity bins
Text: Assays for Detecting and Measuring ΔF508-CFTR Correction Properties of Compounds
Membrane Potential Optical Methods for Assaying ΔF508-CFTR Modulation Properties of Compounds
The optical membrane potential assay utilized voltage-sensitive FRET sensors described by Gonzalez and Tsien (See, Gonzalez, J. E. and R. Y. Tsien (1995) “Voltage sensing by fluorescence resonance energy transfer in single cells” Biophys J 69(4): 1272-80, and Gonzalez, J. E. and R. Y. Tsien (1997) “Improved indicators of cell membrane potential that use fluorescence resonance energy transfer” Chem Biol 4(4): 269-77) in combination with instrumentation for measuring fluorescence changes such as the Voltage/Ion Probe Reader (VIPR) (See, Gonzalez, J. E., K. Oades, et al. (1999) “Cell-based assays and instrumentation for screening ion-channel targets” Drug Discov Today 4(9): 431-439).
These voltage sensitive assays are based on the change in fluorescence resonant energy transfer (FRET) between the membrane-soluble, voltage-sensitive dye, DiSBAC2(3), and a fluorescent phospholipid, CC2-DMPE, which is attached to the outer leaflet of the plasma membrane and acts as a FRET donor. […] The changes in fluorescence emission were monitored using VIPR™ II, which is an integrated liquid handler and fluorescent detector designed to conduct cell-based screens in 96- or 384-well microtiter plates. […]

T1 sequence (P13569 with tags, fused parts or gaps DEL508-508): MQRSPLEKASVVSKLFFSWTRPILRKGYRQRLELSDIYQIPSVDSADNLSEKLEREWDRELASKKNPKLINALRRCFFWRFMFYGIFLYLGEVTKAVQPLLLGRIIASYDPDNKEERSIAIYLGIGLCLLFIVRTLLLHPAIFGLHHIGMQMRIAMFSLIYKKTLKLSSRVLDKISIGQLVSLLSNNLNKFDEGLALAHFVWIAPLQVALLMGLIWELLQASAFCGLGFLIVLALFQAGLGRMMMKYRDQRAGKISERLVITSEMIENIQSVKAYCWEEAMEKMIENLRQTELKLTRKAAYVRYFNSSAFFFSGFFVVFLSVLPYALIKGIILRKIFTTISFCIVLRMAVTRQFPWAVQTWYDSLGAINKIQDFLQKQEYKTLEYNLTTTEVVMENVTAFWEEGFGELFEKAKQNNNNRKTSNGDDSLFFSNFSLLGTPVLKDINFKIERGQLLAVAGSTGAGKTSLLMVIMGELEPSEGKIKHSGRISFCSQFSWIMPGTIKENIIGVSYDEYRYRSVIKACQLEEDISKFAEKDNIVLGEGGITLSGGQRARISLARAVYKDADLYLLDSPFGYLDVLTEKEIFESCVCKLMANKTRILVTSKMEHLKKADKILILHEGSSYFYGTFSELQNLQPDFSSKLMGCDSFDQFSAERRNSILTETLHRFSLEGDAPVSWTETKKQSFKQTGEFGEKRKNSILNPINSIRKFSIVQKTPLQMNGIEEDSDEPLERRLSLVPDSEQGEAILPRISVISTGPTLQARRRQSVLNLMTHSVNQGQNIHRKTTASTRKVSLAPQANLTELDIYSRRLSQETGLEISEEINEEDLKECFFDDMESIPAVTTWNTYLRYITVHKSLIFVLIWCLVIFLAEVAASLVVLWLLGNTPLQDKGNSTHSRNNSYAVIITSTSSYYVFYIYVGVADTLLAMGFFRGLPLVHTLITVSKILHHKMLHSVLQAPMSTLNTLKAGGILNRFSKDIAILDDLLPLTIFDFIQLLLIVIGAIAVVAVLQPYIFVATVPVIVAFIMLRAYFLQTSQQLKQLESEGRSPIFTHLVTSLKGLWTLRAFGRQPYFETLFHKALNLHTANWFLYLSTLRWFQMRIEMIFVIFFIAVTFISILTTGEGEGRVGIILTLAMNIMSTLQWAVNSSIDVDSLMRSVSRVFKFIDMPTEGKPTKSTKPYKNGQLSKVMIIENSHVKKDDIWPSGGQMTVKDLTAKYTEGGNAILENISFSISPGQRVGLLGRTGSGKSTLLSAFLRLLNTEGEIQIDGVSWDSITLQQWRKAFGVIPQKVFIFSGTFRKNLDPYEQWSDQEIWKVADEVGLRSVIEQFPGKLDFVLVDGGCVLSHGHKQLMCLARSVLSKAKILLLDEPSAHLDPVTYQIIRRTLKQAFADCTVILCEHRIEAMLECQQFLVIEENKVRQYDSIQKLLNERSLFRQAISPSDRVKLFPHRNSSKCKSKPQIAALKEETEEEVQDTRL

Binned MaxEfficacy (PercentActivity): +++ (100.0 < +++)
SMILES: CC(C)(CO)c1cc2cc(NC(=O)C3(c4ccc5c(c4)OC(F)(F)O5)CC3)c(F)cc2n1C[C@@H](O)CO [Compound 1, (R)-1-(2,2-difluorobenzo[d][1,3]dioxol-5-yl)-N-(1-(2,3-dihydroxypropyl)-6-fluoro-2-(1-hydroxy-2-methylpropan-2-yl)-1H-indol-5-yl)cyclopropanecarboxamide]
